In ChEMBL document CHEMBL1201862, “PubChem BioAssay data set” (2004):
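48-hour exposure; five concentrations; linearly interpolated endpoints. The concentration for 50% growth inhibition is given as GI50.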 Active and inactive are the calls of the source. Rule as the data show it: active = GI50 up to about 1.1 µM and inactive = higher.

Tests used:
Assay in all cases: NCI tumour cell line growth inhibition, 48 h
[1] = system: HCT-15
[2] = system: ACHN
[3] = system: A498
[4] = system: 786-0
[5] = system: U-251
[6] = system: SK-MEL-5
[7] = system: TK-10
[8] = system: SN12C
[9] = system: OVCAR-8
[10] = system: NCI-H226
[11] = system: UO-31
[12] = system: MOLT-4
[13] = system: MCF7
[14] = system: NCI-H23
[15] = system: UACC-62
[16] = system: HCC 2998
[17] = system: RPMI-8226
[18] = system: NCI-H460
[19] = system: SR
[20] = system: MDA-MB-435

Row | Structure (SMILES) | GI50 [1] | GI50 [2] | GI50 [3] | GI50 [4] | GI50 [5] | GI50 [6] | GI50 [7] | GI50 [8] | GI50 [9] | GI50 [10] | GI50 [11] | GI50 [12] | GI50 [13] | GI50 [14] | GI50 [15] | GI50 [16] | GI50 [17] | GI50 [18] | GI50 [19] | GI50 [20]
1 | CCOC(=O)COc1ccccc1/C=C1\CCC(CN(C)C)C1=O (stereo not drawn) | 3.24 µM | 13.9 µM (inactive) | 17.2 µM (inactive) | 2.94 µM (inactive) | 8 µM (inactive) | 10.4 µM (inactive) | 12.9 µM (inactive) | 5.96 µM (inactive) | 4.2 µM (inactive) | 17.5 µM (inactive) | 16.3 µM (inactive) | 2.11 µM (inactive) | 2.57 µM (inactive) | 8.41 µM (inactive) | 6.05 µM (inactive) | 2.46 µM (inactive) | 0.902 µM (active) | 10.8 µM (inactive) |  | 
2 | CCOC(=O)C1=C(C)NC(=S)NC1c1ccccc1 (stereo not drawn) | > 41.3 µM | > 100 µM (inactive) | > 100 µM (inactive) | > 100 µM (inactive) | > 39.3 µM (inactive) | > 83.9 µM (inactive) | > 100 µM (inactive) | > 100 µM (inactive) | > 100 µM (inactive) | > 100 µM (inactive) | 35.9 µM (inactive) | 59.6 µM (inactive) |  | > 100 µM (inactive) | > 71.3 µM (inactive) | > 100 µM (inactive) | 33.9 µM (inactive) | > 59.3 µM (inactive) | 21.8 µM (inactive) | 
3 | O=C(/C=C/c1ccccc1)CCC1C(=O)NC(=S)NC1=O | > 100 µM | > 100 µM (inactive) | > 100 µM (inactive) | > 100 µM (inactive) | > 100 µM (inactive) | > 100 µM (inactive) |  | > 100 µM (inactive) | > 100 µM (inactive) | > 100 µM (inactive) | > 100 µM (inactive) | > 100 µM (inactive) |  | > 100 µM (inactive) | > 100 µM (inactive) | > 100 µM (inactive) |  | > 100 µM (inactive) |  | > 100 µM (inactive)
4 | CCN(CC)CCCNc1nccc2c(C)c3[nH]c4ccncc4c(=O)c3cc12 | 8.71 µM | 1.8 µM (inactive) | 7.28 µM (inactive) | 0.977 µM (active) | 2.19 µM (inactive) | 3.57 µM (inactive) | 3.18 µM (inactive) | 1.5 µM (inactive) | 0.557 µM (active) | 2.24 µM (inactive) | 9.79 µM (inactive) | 0.33 µM (active) |  | 1.95 µM (inactive) | 1.53 µM (inactive) | 2.37 µM (inactive) | 2.64 µM (inactive) | 1.71 µM (inactive) | 0.13 µM (active) | 
5 | CNC(=O)OCc1nccc2c(C)c3[nH]c4ccc(OC)cc4c3cc12 | 3.03 µM | 1.61 µM (inactive) | 6.7 µM (inactive) | 3.78 µM (inactive) | 5.12 µM (inactive) | 2.79 µM (inactive) | 19.3 µM (inactive) | 19.1 µM (inactive) | 3.1 µM (inactive) | 1.73 µM (inactive) | 3.35 µM (inactive) | 0.705 µM (active) |  | 4.74 µM (inactive) | 6.37 µM (inactive) | 5.57 µM (inactive) | 2.59 µM (inactive) | 1.08 µM (active) | 0.218 µM (active) | 
6 | CC1(C)[C@@H]2CC[C@@]1(C)[C@H](O)[C@@H]2SCc1ccccc1 | 14.8 µM | 11.7 µM (inactive) | < 0.01 µM (active) | 17 µM (inactive) | 17.1 µM (inactive) | 15.4 µM (inactive) | 22.6 µM (inactive) | 17.8 µM (inactive) | 19.1 µM (inactive) | 18.7 µM (inactive) | 21 µM (inactive) | 16.5 µM (inactive) |  | 14.1 µM (inactive) | 10.2 µM (inactive) | 19.5 µM (inactive) | 27.5 µM (inactive) | 19.2 µM (inactive) | 28.8 µM (inactive) | 18.2 µM (inactive)
7 | CSc1nc(-c2cc3c(c(SC)n2)CCCCC3)cc2c1CCCCC2 | > 100 µM | > 100 µM (inactive) | > 100 µM (inactive) | > 100 µM (inactive) | > 100 µM (inactive) | > 100 µM (inactive) | > 100 µM (inactive) | > 100 µM (inactive) | > 100 µM (inactive) | > 100 µM (inactive) | > 100 µM (inactive) | > 100 µM (inactive) |  | > 100 µM (inactive) | > 100 µM (inactive) | > 100 µM (inactive) | > 100 µM (inactive) | > 100 µM (inactive) |  | > 100 µM (inactive)
8 | Nc1nc(N)c2c(n1)NC(c1ccccc1)CC(/C=C/c1ccc(Cl)cc1)=N2 (stereo not drawn) | 5.97 µM | 10.8 µM (inactive) | 15.4 µM (inactive) | 3.11 µM (inactive) | 5.87 µM (inactive) | 9.4 µM (inactive) | 2.56 µM (inactive) | 8.89 µM (inactive) | 5.28 µM (inactive) | 6.64 µM (inactive) | 9.12 µM (inactive) | 1.89 µM (inactive) | 3.48 µM (inactive) | 3.69 µM (inactive) | 11.6 µM (inactive) |  | 3.12 µM (inactive) | 4.41 µM (inactive) |  | 3.59 µM (inactive)
